The values that follow come from a melting point compilation (Tetko et al.; mined from patent text by program, amines drawn as free bases though some values may be those of a salt).

Usually melting point stands for the temperature, or range, at which the solid turns liquid. The compound `O=C(O)c1ccccc1NCCCc1ccccc1` showed a melting point of 103 to 105 °C. In turn, `Nc1ccc(-c2cc3c(Oc4ccc(Cl)cc4)cncc3s2)cc1` came in with a melting point of 178 to 182 °C. For `CCCNC(=O)c1cnc2ccccc2c1O` the value was 210 °C; for `COc1c(N2CCCC(CN)C2)c(F)cc2c(=O)c(C(=O)O)cn(C3CC3)c12` (stereo not drawn), 192 to 193 °C; for `O=C(Nc1nc(C(F)(F)F)co1)C1c2ccccc2Oc2c(F)cccc21` (racemic), 233 °C. For `Cc1ccc([N+](=O)[O-])c(C=C(C(=O)O)C(=O)O)c1` the value was 180 to 182 °C. `COc1cccc(Cc2nc3n(-c4c(Cl)cc(Cl)cc4Cl)[nH]c(C(C)C)c-3c(=O)n2)c1` registered a melting point of 204 to 205 °C. Consider `O=C(O)C=CC(=O)c1ccc(Oc2ccc(Cl)c(Cl)c2)cc1`, for which the melting point fell in the range of 155 to 156 °C. The compound `CN1C(=O)[C@@H](CN2CCCCC2)C[C@H]1c1ccc(-c2ccccc2Cl)s1` displayed a melting point of 73 to 75 °C. As for `Clc1ccc(-c2ccnc(Nc3nc4ccccc4[nH]3)n2)cn1`, the figure is 308 to 311 °C; as for `CC(C)N(C(=O)C(F)(F)F)c1cc2c(cc1C(=O)c1ccccc1)OCO2`, 100 to 102 °C. In turn, `COc1ccc(S(=O)c2ccccc2)cc1N` (stereo not drawn) displayed a melting point of 113 to 115 °C. As for `Cc1ccccc1-c1ccc(C(=O)N2Cc3ccc(C(=O)NCc4cccnc4)n3Cc3ccccc32)cc1C`, the figure is 147 to 149 °C; as for `COc1cc([N+](=O)[O-])c(N)cc1C(=O)O`, 252 to 255 °C; as for `O=C1NC2=C(C=CCC2)S(=O)(=O)c2cc(C(F)(F)F)ccc21`, 240 to 241 °C. For `CNC(=NS(C)(=O)=O)NCCCCc1csc(NC(N)=NCCO)n1` the value was 128 to 132 °C; for `COC(=O)c1cc(OC)c(OC)cc1C1=NCCc2ccccc21`, 133 °C; for `O=C(NCc1ccccc1)Nc1ccc(Cl)cc1`, 206 to 208 °C. `O=c1ncc(Cl)cn1Cc1ccccc1` showed a melting point of 197 °C.

The compound `CCOC(=O)c1cc2cc(OCCCOC)cc(NS(=O)(=O)c3ccccn3)c2[nH]1` had a melting point of 126 to 127 °C. For `Cc1nc2cc3c(cc2c(=O)[nH]1)C(N(C)c1ccc(C(=O)NC(CCC(=O)NC(C(=O)O)c2ccc(CC(=O)O)cc2)C(=O)O)c(F)c1)CC3` (stereo not drawn) the value was 175 to 177 °C; for `CN(C)C(=O)C(=O)C1=CC2(CCCC2)c2ccccc21`, 119 to 121 °C; for `O=C1CCN(C2c3ccccc3-c3ccccc32)CC1`, 135 °C. For the compound `NC(=O)N(c1ccccc1-c1nc(C2CC2)no1)C1CN2CCC1CC2` (stereo not drawn), the melting point lay within 229 to 233 °C. With `CC(=O)Oc1c(C(C)(C)C)cc(CCCO)cc1C(C)(C)C`, the melting point is 93 to 95 °C. As for `CNC(=S)N1CCSC1c1ccccc1OCCN1CCN(c2ccccc2)CC1` (single isomer, unassigned; (-)), the melting point lay in the range of 144 to 146 °C. As for `CSc1cccc(NCC2CN(C(=O)Oc3ccccc3)CCO2)c1` (stereo not drawn), the figure is 114 to 115 °C; as for `CN1C[C@H](CN2CCN(C(c3ccccc3)c3ccccc3)CC2)C[C@@H]2c3cccc4[nH]cc(c34)C[C@H]21`, 230 to 233 °C; as for `O=[N+]([O-])c1cnn(-c2ccc(Cl)nn2)c1`, 169 to 172 °C. The compound `O=C(O)c1cc(-c2ccc(Cl)cc2)n(Cc2ccc(Cl)cc2Cl)n1` had a melting point of 185 °C. For `COC(=O)c1cc(Cl)cc(O)c1O` the value was 102 °C; for `CC(COc1ccc(/C=C/C(=O)O)cc1)N(C)C` (stereo not drawn), 231 °C; for `CCOc1nc(-c2cccc(Cl)c2)c2cc(C(O)(c3ccc(C(=O)OC(C)C)cc3)c3cncn3C)ccc2n1` (stereo not drawn), 145 °C. As for `COc1ccc2c(c1)CCC1=C2CCC(=O)C1`, the figure is 75 to 77 °C.

Regarding `Cc1c(F)c(N2CCC(N)C2)cc2c1c(=O)c(C(=O)O)cn2C1CC1` (stereo not drawn), the melting point is more than 300 °C.

In turn, `Cc1c(OCc2ccc(F)cc2F)ccn(Cc2cccc(F)c2)c1=O` came in with a melting point of 127 to 129 °C. For `CS(=O)(=O)c1ccc(Oc2ccc(OC(F)(F)C(Cl)Cl)cc2)cc1` the value was 67 to 70 °C. For `Cc1ccc(S(=O)(=O)N2Cc3cscc3C2)cc1` the value was 125 to 127 °C. As for `CCCCC1=C(C=Cc2ccc(N(CCCC)CCCC)cc2OC)CC(C)(C)CC1=CC=CC1=C(C#N)C(=C(C#N)C#N)OC1(c1ccccc1)C(F)(F)F` (stereo not drawn), the figure is 109 to 113 °C; as for `O=CNNC(=S)Nc1ccccc1F`, 148 to 149 °C; as for `Cc1nnc(-c2ccc3ncn(-c4cccc(OC(F)(F)F)c4)c3c2)o1`, 153 to 154 °C. `COc1ccc(-n2nc(CCCO)c(Cl)c2-c2ccc(Cl)cc2)cc1` displayed a melting point of 113 to 115 °C. With `COc1ccc(N2C(=O)C(=C3CCCN3)c3ccccc32)cc1F`, the melting point is 169 to 171 °C. For `C#CCN1C(=O)c2cccc3cccc(c23)C1=O` the value was 235 to 237 °C; for `Cc1cc(C)c2nc(NCCCO)n(Cc3nc(C)ccc3O)c2c1`, 170 °C.

On to `Cc1cc(O)c(Cc2ccc(C(C)C)cc2)c(C)c1NC(=O)CC(C)(C)C`, for which the melting point is 202 to 203 °C. As for `O=C(CNc1ccccc1)OC1CCCCC1`, the figure is 50 °C; as for `COc1ccc(C2=NN(C3CCCC3)C(=O)[C@H]3CC=CC[C@@H]23)cc1OC` (relative stereo), 131 to 133 °C; as for `CC(C)N1CC2CC(C1)CN(S(=O)(=O)c1ccccc1)C2`, 85.5 to 86.5 °C. Consider `CCOC(=O)c1c(OC)cc(C(F)(F)F)nc1C(F)(F)F`, for which the melting point fell in the range of 58.5 to 59.5 °C.

For `COc1ccc(C(=O)N2CCOc3ccc(C4=NNC(=O)CC4)cc32)cc1OC`, the melting point was in the range of 207 to 208 °C.

In the case of `Cc1c(C)c2ccc(CCCCCN3CCN(c4cccc(Cl)c4Cl)CC3)nc2[nH]c1=O`, the melting point lay within 202 to 203 °C. For `N#Cc1cnn2c1N(C(=O)CN1CCN(C(=O)Nc3ccc(Cl)c(Cl)c3)CC1)CC=C2c1cccc(C(F)(F)F)c1`, the melting point lay in the range of 204 to 206 °C. As for `Cc1ccc(COC2C(Sc3ccccc3)OC(C)C(O)C2O)cc1` (stereo not drawn), the figure is 146 to 147 °C. `COc1ccc(Cl)cc1C1(F)C(=O)Nc2cc(C(F)(F)F)cc(C(F)(F)F)c21` (stereo not drawn): the melting point is 262 to 264 °C. For `CC(C)NC(=O)c1coc2ccccc2c1=O` the value was 104 to 106 °C; for `CC1CC(=O)NN=C1c1ccc(NCCN)c([N+](=O)[O-])c1` (stereo not drawn), 162 to 164 °C.

The compound `CCCCCCCCCCCCS(=O)(=O)N1CCCSC1=C(Cl)[N+](=O)[O-]` showed a melting point of 76 to 77 °C. In turn, `CCCCCCCCCCCC1=NCCN1CCOCCO` registered a melting point of 58 to 60 °C. For `COc1c(N2C[C@H](CF)[C@](C)(N)C2)c(F)cc2c(=O)c(C(=O)O)cn([C@@H]3C[C@@H]3F)c12` the value was 187 to 189 °C; for `O=C(O)CC=CCC(=O)NCCc1ccccc1`, 101 to 103 °C; for `O=[N+]([O-])C=C1SCCN1Cc1cccnc1`, 96 to 100 °C.

Regarding `CCOc1ccc2ccccc2c1C(=O)NC(Cc1ccc(C(F)(F)F)cc1)C(=O)c1ccc(F)cc1` (stereo not drawn), the melting point was in the range of 188 to 189 °C.

Turning to `CCC(=O)CS(=O)(=O)c1ccc(OS(=O)(=O)c2ccc(C)cc2)cc1`, the melting point was 104 to 106 °C.

Regarding `CCC1CCC(CCc2ccccc2NC(=O)C=Cc2ccccc2)N(C)C1` (stereo not drawn), the melting point fell in the range of 91 to 98 °C. As for `CN(C)CCCN1N=C2C(=Cc3ccccc3)CSCC2C1c1ccccc1` (stereo not drawn), the figure is 83 to 85 °C; as for `O=C(O)c1ccccc1C=Cc1ccccc1`, 158 to 159 °C; as for `CCN(c1ccc(C)c2cc(-c3ncc(CO)s3)[nH]c12)S(=O)(=O)c1cccs1`, 166 to 167 °C. As for `CC(C)Cn1c(=O)n(C)c(=O)c2c(SCCCN=[N+]=[N-])c(Cc3cccc4ccccc34)sc21`, the melting point was in the range of 94 to 96 °C. For `CC1Nc2ccc(-c3ccc(F)c(Cl)c3)cc2C(C)(C)O1` (stereo not drawn) the value was 173 to 175 °C.

`O=C(O)C1CCCc2c(-c3ccc(Cl)c(Cl)c3)noc2C1` (stereo not drawn) yielded a melting point of 183 to 185 °C. For `O=C1NC(=O)c2c1c1c3ccc(F)cc3[nH]c1c1c2c2ccc(F)cc2n1C1OC2COC(C2O)C1O` (stereo not drawn) the value was more than 300 °C; for `C#Cc1c(O)c(C)c(C)c(O)c1C#C`, 152 °C; for `Cc1cc2c(N=C3SC[C@@H]4Cc5ccccc5CN34)cccc2cn1`, 181 °C. Compound `CCC1Cc2cc3c(cc2C(c2ccc([N+](=O)[O-])cc2)O1)OCO3` (stereo not drawn) displayed a melting point of 116 to 118 °C. Compound `CCOC(=O)Cc1ccc(-c2nc(COc3cc(CO)on3)c(C)o2)cc1` came in with a melting point of 116 to 117 °C. With `O=C(Nc1ccc(N2CCN(Cc3ccc[nH]3)CC2)cc1)c1ccccc1-c1ccc(C(F)(F)F)cc1`, the melting point is 191 to 193 °C. As for `CCCCCCCCCCCCSC(=S)SSC(=S)SCCCCCCCCCCCC`, the figure is 33 to 35 °C; as for `Cc1cccc(NC(=O)NCC(=O)N(CC(=O)N(C)c2ccccc2)c2ccccc2)c1`, 168 °C; as for `CC(=O)Nc1cc2c(cc1C#N)C=CC(C)(C)O2`, 136 to 137 °C. As for `COc1ccc(-c2ccc(N)cc2)cc1OC1CCCC1`, the figure is 94 to 95 °C; as for `CCNC(=S)Nc1cc(F)ccc1C`, 93 to 95 °C. For `CN(C)c1ccc(-c2cc3ccccc3o2)cc1` the value was 178 to 181 °C. `CCC1Nc2cc(F)c(F)c(F)c2-n2cccc21` (stereo not drawn) came in with a melting point of 69 to 70 °C.

As for `c1ccc(CN2CCN(c3n[nH]c4c3Cc3ccccc3-4)CC2)cc1`, the melting point fell in the range of 256 to 258 °C. Consider `CCCCC(=O)N1CCC(c2nc(-c3ccc(-c4ccccc4)cc3)c[nH]2)CC1`, for which the melting point is 215 to 216 °C. As for `CC(C)(C)C(C(N)=O)c1cccc(Nc2ncnc3[nH]cc(C(=O)c4ccccc4)c23)c1` (stereo not drawn), the figure is 288 to 290 °C; as for `COc1cc(COc2nn(-c3ccccc3)cc2CC(=O)N2CCOCC2)ccc1OCc1nc(-c2ccco2)oc1C`, 132 to 133 °C.
